Among the data in patent US7935724B2, “Thiophene and benzothiophene hydroxamic acid derivatives” (Merck HDAC Research, LLC, priority 2003, dated 2011) are IC50 values, retold here.

Read-outs that look alike come from different tables or passages of the source.

The target of experiment [1] is T1, histone deacetylase, subtype 1 (HDAC1) (Homo sapiens, UniProt Q13547).
T1 construct: Flag; made in house
As to the kind of experiment: HDAC1-Flag assay (in vitro deacetylation assay). The experiment is classed as biochemical. Particulars: concentration for 50% inhibition of deacetylation, substrate at Km, unit inferred, text gives nm, read-out: HDAC Inhibition. The protocol: Novel compounds were tested for their ability to inhibit histone deacetylase, subtype 1 (HDAC1) using an in vitro deacetylation assay. The enzyme source for this assay was an epitope-tagged human HDAC1 complex immuno-purified from stably expressing mammalian cells. The substrate consisted of a commercial product containing an acetylated lysine side chain (BIOMOL Research Laboratories, Inc., Plymouth Meeting, Pa.). Upon deacetylation of the substrate by incubation with the purified HDAC1 complex, a fluorophore is produced that is directly proportional to the level of deacetylation.

Experiment [2] deals with murine erythroleukemia cell line SC9. As to the kind of experiment: MTS assay (Cell Titer 96 Aqueous One Solution Cell Proliferation Assay). The experiment is classed as cell-based. Particulars: unit inferred, unit nm. As to the method:
The novel compounds of the present invention were tested for their ability to inhibit proliferation of the murine erythroleukemia cell line SC9.
The MTS assay, also referred to as the Cell Titer 96 Aqueous One Solution Cell Proliferation Assay, is a calorimetric method for determining the number of viable cells in proliferation, cytotoxicity or chemosensitivity assays. The MTS reagent contains a novel tetrazolium compound [3-(4,5-dimethylthiazol-2-yl)-5-(3-carboxymethoxyphenyl)-2-(4-sulfophenyl)-2H-tetrazolium, inner salt] and electron coupling reagent (phenazine ethosulfate;PES). Murine erythroleukemia cells (SC-9) were incubated with vehicle or increasing concentrations of compound for 48 hours. Cell proliferation was quantitated by adding a small amount of the MTS reagent directly to culture wells, incubating for 1-4 hours and then recording the absorbance at 490 nm with a 96-well plate reader. The quantity of formazan product, as measured by […] absorbance, is directly proportional to the number of living cells in culture.

The mark [3] stands for this setting: Table 1, benzothiophene backbone.
The mark [4] stands for this setting: Mus musculus, SC9, 48 h, Table 3, concentration inhibiting proliferation of SC9 cells.
[5] abbreviates: Table 3, concentration inhibiting proliferation of SC9 cells, 48 hours.

T1 sequence (Q13547 whole entry): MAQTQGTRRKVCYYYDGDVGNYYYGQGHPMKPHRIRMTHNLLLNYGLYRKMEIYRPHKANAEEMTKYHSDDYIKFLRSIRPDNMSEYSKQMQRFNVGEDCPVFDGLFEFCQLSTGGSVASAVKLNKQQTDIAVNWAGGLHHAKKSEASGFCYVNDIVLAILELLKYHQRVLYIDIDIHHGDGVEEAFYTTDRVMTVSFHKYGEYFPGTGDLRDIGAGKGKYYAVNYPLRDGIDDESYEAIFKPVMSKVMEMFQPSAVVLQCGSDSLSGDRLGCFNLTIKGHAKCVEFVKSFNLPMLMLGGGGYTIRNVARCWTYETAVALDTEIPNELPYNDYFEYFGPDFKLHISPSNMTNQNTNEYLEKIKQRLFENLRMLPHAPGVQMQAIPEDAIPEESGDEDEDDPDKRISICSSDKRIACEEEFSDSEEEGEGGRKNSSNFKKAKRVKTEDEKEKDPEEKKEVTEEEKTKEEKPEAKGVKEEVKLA

With `O=C(CN1CCCCC1)Nc1ccc2cc(C(=O)NO)sc2c1` [Compound 115], the IC50 was determined as 38 nM in experiment [1] (setting [3]) and 306 ± 78.5 nM in experiment [2] (setting [4]).

With `O=C(NO)c1cc2cc(CNCCCCc3ccccc3)ccc2s1` [Compound 156], the IC50 worked out at 275 ± 34.6 nM in experiment [1] (setting [3]) and 966 nM in experiment [2] (setting [4]).

Take `O=C(Cc1ccccc1)Nc1ccc(C(=O)NO)s1` [Compound 59]: the IC50 in experiment [1] (Table 2, thiophene backbone) stood at 63.5 ± 7.7 nM; in experiment [2] (setting [4]), 642 nM.

Take `COc1ccc(CNCc2ccc3sc(C(=O)NO)cc3c2)cc1` [Compound 162]: the IC50 in experiment [1] (setting [3]) was 110 ± 14.1 nM; in experiment [2] (setting [4]), 587 nM.

With `O=C(CN1CCN(c2ncccn2)CC1)Nc1ccc2cc(C(=O)NO)sc2c1` [Compound 101], the IC50 in experiment [1] (setting [3]) was 59 ± 7 nM; in experiment [2] (setting [4]), 830 ± 393 nM.

Regarding `O=C(NO)c1cc2ccc(NS(=O)(=O)c3cccc4ccccc34)cc2s1` [Compound 13], the IC50 in experiment [1] (setting [3]) is 26 ± 1.4 nM; in experiment [2] (setting [4]) it was 441 nM.

Turning to `O=C(NO)c1cc2cc(NC(=O)C(c3ccccc3)c3ccccc3)ccc2s1` [Compound 39], the values for the IC50 in experiment [1] (setting [3]) and in experiment [2] (setting [4]) were 189 ± 4.9 nM and 666 nM, respectively.

On to `COc1cccc(CNCc2ccc3sc(C(=O)NO)cc3c2)c1` [Compound 148], for which the IC50 in experiment [1] (setting [3]) came to 100 ± 12.7 nM; in experiment [2] (setting [4]) it was 430 ± 132 nM.

In the case of `COc1ccccc1CNCc1ccc2cc(C(=O)NO)sc2c1` [Compound 185], the IC50 in experiment [1] (setting [3]) is 48.5 ± 6.3 nM; in experiment [2] (setting [4]), 90 nM.

`CC(C)(C(=O)Nc1ccc2cc(C(=O)NO)sc2c1)c1ccccc1` [Compound 189]: the values for the IC50 in experiment [1] (setting [3]) and in experiment [2] (setting [4]) were 72 ± 14.1 nM and 493 nM, respectively.

For `O=C(NO)c1cc2ccc(NC(=O)C3(c4ccc(Cl)cc4)CCC3)cc2s1` [Compound 127], the IC50 was 115 ± 9.8 nM in experiment [1] (setting [3]) and 935 nM in experiment [2] (setting [4]).

On to `O=C(Cc1ccc(Cl)cc1)Nc1ccc2cc(C(=O)NO)sc2c1` [Compound 88], for which the IC50 came out at 19 ± 5.6 nM in experiment [1] (setting [3]) and 238 nM in experiment [2] (setting [4]).

As to `CC(C(=O)Nc1ccc2cc(C(=O)NO)sc2c1)c1ccccc1` (stereo not drawn) [Compound 123], the results for the IC50 in experiment [1] (setting [3]) and in experiment [2] (setting [4]) were 18 ± 5.6 nM and 206 ± 79.2 nM, respectively.

For the molecule `O=C(CN1CCN(c2ccccc2Cl)CC1)Nc1ccc2cc(C(=O)NO)sc2c1` [Compound 119], the IC50 in experiment [1] (setting [3]) was found to be 36.6 ± 13.2 nM; in experiment [2] (setting [4]), 568 ± 227 nM.

Turning to `COc1ccc(CNCc2ccc3cc(C(=O)NO)sc3c2)cc1` [Compound 187], the IC50 in experiment [1] (setting [3]) was 23 ± 1.4 nM; in experiment [2] (setting [4]), 56 nM.

With `O=C(CN(CC(=O)Nc1ccccc1)c1ccc2cc(C(=O)NO)sc2c1)Nc1ccccc1` [Compound 178], the values for the IC50 in experiment [1] (setting [3]) and in experiment [2] (setting [4]) were 6.5 ± 0.7 nM and 200 ± 19.7 nM, respectively.

In the case of `O=C(NO)c1cc2cc(CNC3CCN(Cc4ccccc4)CC3)ccc2s1` [Compound 146], the IC50 worked out at 524 ± 102 nM in experiment [1] (setting [3]) and 891 nM in experiment [2] (setting [4]).

For `O=C(NO)c1cc2ccc(NC(=O)C(c3ccccc3)c3ccccc3)cc2s1` [Compound 28], the IC50 in experiment [1] (setting [3]) was 79.5 ± 0.7 nM; in experiment [2] (setting [4]) it was 696 nM.

In the case of `CCC(C(=O)Nc1ccc2cc(C(=O)NO)sc2c1)c1ccccc1` (stereo not drawn) [Compound 98], the IC50 came to 41.5 ± 2.1 nM in experiment [1] (setting [3]) and 225 ± 26.7 nM in experiment [2] (setting [5]).

Regarding `COc1cccc(N2CCN(CC(=O)Nc3ccc4cc(C(=O)NO)sc4c3)CC2)c1` [Compound 100], the IC50 in experiment [1] (setting [3]) was 45 ± 5.6 nM; in experiment [2] (setting [4]), 519 ± 65.7 nM.

Regarding `CN(C(=O)Cc1ccccc1)c1ccc2cc(C(=O)NO)sc2c1` [Compound 106], the IC50 worked out at 74.5 ± 17.6 nM in experiment [1] (setting [3]) and 537 ± 124 nM in experiment [2] (setting [4]).

For `O=C(Nc1ccc2sc(C(=O)NO)cc2c1)OCc1ccccc1` [Compound 36], the IC50 in experiment [1] (setting [3]) amounted to 119 nM; in experiment [2] (setting [4]), 717 nM.

As for `O=C(NO)c1cc2cc(CNCc3ccccc3)ccc2s1` [Compound 99], the IC50 in experiment [1] (setting [3]) worked out at 144 ± 53 nM; in experiment [2] (setting [4]), 474 ± 65.7 nM.

In the case of `COc1ccccc1N1CCN(CC(=O)Nc2ccc3cc(C(=O)NO)sc3c2)CC1` [Compound 107], the values for the IC50 in experiment [1] (setting [3]) and in experiment [2] (setting [4]) were 79 ± 5.6 nM and 309 nM, respectively.

Regarding `CCC(C(=O)Nc1ccc2cc(C(=O)NO)sc2c1)c1ccccc1` (stereo not drawn) [Compound 180], the IC50 in experiment [1] (setting [3]) turned out to be 18.5 ± 2.1 nM; in experiment [2] (setting [5]) it was 140 nM.

`O=C(NO)c1cc2cc(CNCCCc3ccccc3)ccc2s1` [Compound 154]: the IC50 in experiment [1] (setting [3]) came to 163 ± 37.4 nM; in experiment [2] (setting [4]) it was 637 nM.

Regarding `O=C(Cc1ccccc1)Nc1ccc2cc(C(=O)NO)sc2c1` [Compound 6], the IC50 turned out to be 11.5 ± 2.1 nM in experiment [1] (setting [3]) and 250 ± 57.2 nM in experiment [2] (setting [4]).

As for `O=C(NO)c1cc2cc(CNCCc3c[nH]c4ccccc34)ccc2s1` [Compound 145], the IC50 in experiment [1] (setting [3]) was 151 ± 28.2 nM; in experiment [2] (setting [4]) it was 990 nM.

For `O=C(NO)c1cc2ccc(NS(=O)(=O)c3ccc4ccccc4c3)cc2s1` [Compound 14], the IC50 in experiment [1] (setting [3]) was 21.5 ± 3.5 nM; in experiment [2] (setting [4]), 917 nM.

With `O=C(Cc1cccnc1)Nc1ccc2cc(C(=O)NO)sc2c1` [Compound 110], the IC50 in experiment [1] (setting [3]) amounted to 61 ± 15.5 nM; in experiment [2] (setting [4]), 833 ± 65 nM.

Take `COc1ccccc1CNCc1ccc2sc(C(=O)NO)cc2c1` [Compound 147]: the IC50 in experiment [1] (setting [3]) came out at 75.5 ± 7.7 nM; in experiment [2] (setting [4]), 201 ± 59.3 nM.

Regarding `O=C(CN1CCC(Cc2ccccc2)CC1)Nc1ccc2cc(C(=O)NO)sc2c1` [Compound 90], the IC50 in experiment [1] (setting [3]) amounted to 99.5 ± 37.4 nM; in experiment [2] (setting [4]), 704 ± 96.1 nM.

In the case of `O=C(NO)c1cc2cc(NC(=O)c3cccc4ccccc34)ccc2s1` [Compound 25], the IC50 in experiment [1] (setting [3]) worked out at 140 ± 14.1 nM; in experiment [2] (setting [4]), 545 nM.

Regarding `COc1ccc(CC(=O)Nc2ccc3cc(C(=O)NO)sc3c2)cc1` [Compound 89], the results for the IC50 in experiment [1] (setting [3]) and in experiment [2] (setting [4]) were 19.5 ± 0.7 nM and 205 ± 37.5 nM, respectively.

With `CCC(C(=O)Nc1ccc2cc(C(=O)NO)sc2c1)c1ccccc1` (stereo not drawn) [Compound 181], the IC50 in experiment [1] (setting [3]) is 59.5 ± 3.5 nM; in experiment [2] (setting [5]) it was 528 nM.

Take `O=C(NO)c1cc2cc(CNCCc3ccccc3)ccc2s1` [Compound 151]: the values for the IC50 in experiment [1] (setting [3]) and in experiment [2] (setting [4]) were 203 ± 14.8 nM and 947 nM, respectively.

On to `O=C(NO)c1cc2cc(CNCC3CCCCC3)ccc2s1` [Compound 164], for which the IC50 in experiment [1] (setting [3]) was 207 ± 38.1 nM; in experiment [2] (setting [4]), 545 ± 24 nM.

Consider `O=C(CN1CCN(c2ccccn2)CC1)Nc1ccc2cc(C(=O)NO)sc2c1` [Compound 108], for which the IC50 in experiment [1] (setting [3]) was found to be 50 ± 11.3 nM; in experiment [2] (setting [4]), 442 nM.

Turning to `O=C(NO)c1cc2cc(CNCc3ccccn3)ccc2s1` [Compound 142], the IC50 turned out to be 258 ± 17 nM in experiment [1] (setting [3]) and 714 nM in experiment [2] (setting [4]).

For `O=C(NO)c1cc2cc(CNCCC(c3ccccc3)c3ccccc3)ccc2s1` [Compound 155], the IC50 in experiment [1] (setting [3]) stood at 967 ± 215 nM; in experiment [2] (setting [4]), 390 nM.

For the molecule `O=C(CN(Cc1ccccc1)Cc1ccccc1)Nc1ccc2cc(C(=O)NO)sc2c1` [Compound 93], the results for the IC50 in experiment [1] (setting [3]) and in experiment [2] (setting [4]) were 316 ± 56.5 nM and 751 nM, respectively.

Take `O=C(NO)c1cc2ccc(NC(=O)C3(c4ccccc4)CC3)cc2s1` [Compound 126]: the IC50 in experiment [1] (setting [3]) turned out to be 125 ± 5.6 nM; in experiment [2] (setting [4]), 836 nM.
